From EP0596449A2, “Serotonin receptor antagonists for treating myocardial ischemia” (E.R. SQUIBB & SONS, INC., priority 1992, dated 1994) come the findings set out here.

Marks after values point to notes of the source that are not given here.

Test [1] deals with globally ischemic, isolated rat hearts. In words: Effect of 5HT, alone or with 5HT2 antagonist, on time to contracture and pre-ischemic function in isolated rat hearts. The note with it: for Coronary Flow / HR / LVDP: 30 μM 5HT + 3 μM Ketanserin, pre-ischemic; for effect on the pro-ischemic effect of 5HT (time to contracture): 30 µM 5HT plus antagonist, both given 10 minutes before ischemia, Figure 3. The protocol: To determine the effect of serotonin receptor agonists and antagonists, male Sprague-Dawley rats (450-550 g) were prepared as described below. The rats were anesthetized using 100 mg/kg sodium pentobarbital (i.p.). They were intubated and then treated with i.v. heparin (1000 U/kg). While being mechanically ventilated, their hearts were perfused in situ via retrograde cannulation of the aorta. […] A water-filled latex balloon attached to a metal cannula was then inserted into the left ventricle and connected to a Statham pressure transducer for measurement of left ventricular pressure. […] Pre-ischemia or pre-drug function, heart rate and coronary flow (extracorporeal electromagnetic flow probe) were then measured. Left ventricular developed pressure (LVDP) was calculated from the difference between left ventricular peak systolic pressure and EDP. Cardiac temperature was maintained throughout the experiment by submerging the hearts in 37 ° C buffer which was allowed to accumulate in a stoppered, heated chamber. In another series of hearts, the effect of 5HT on the severity of ischemia was determined. […] Vehicle (0.1% DMSO) given 10 minutes before ischemia (n = 5). The hearts were subjected to global ischemia as described above and time to contracture determined. Reperfusion function and LDH release were not determined in this group.

The next test relates to alpha, Adrenoceptors. In words: Methoxamine-induced contraction in rat aortic rings (alpha1 blocking potency). The settings on record: 45 minute incubation; Figure 5B. The protocol:
In order to determine the alpha1 blocking potency of cinanserin, ketanserin and LY 53857, their effect on methoxamine induced aortic constriction was determined. Male Sprague-Dawley rats were sacrificed using C02. Aortic rings (3 mm in width) were cut, denuded of endothelium by gently rolling the rings on moistened filter paper, and mounted on stainless steel hooks in 20 mL muscle chambers containing oxygenated physiological salt solution (PSS) of the following composition (in mM): 118.4 NaCI, 4.7 KCI, 1.2 MgS04, 1.2 KH2P04, 1.9 CaC12, 25.0 NaHC03, 10.1 D-glucose, and 0.01 mM Na2EDTA maintained at 37 °C. The hooks were connected to Grass FT03C transducers for recording of isometric force development. The rings were stretched to 2 g preload during the equilibration period. During equilibration the rings were periodically stimulated with 24 mM KCI to determine contractility. The effectiveness of endothelial removal was confirmed by the absence of relaxation by 1 µM acetylcholine of a contraction in response to 0.01 µM phenylephrine.
Various concentrations of the test compounds were then added to individual baths and allowed a 45 minute incubation before cumulative concentration response curves for methoxamine (1 nM-30 /1.M) were obtained. Solvent controls were run in parallel. […]

On to `O=C(c1ccc(F)cc1)C1CCN(CCn2c(=O)[nH]c3ccccc3c2=O)CC1` [Ketanserin, ketanserin], for which, in test [1] (Post-Drug), the “Coronary Flow” value was found to be 18 ± 1 mL/min/g, the HR is reported as 335±17^a beats/min and the LVDP was 130±2 mmHg. Further, in test [1] (Pre-Drug), the “Coronary Flow” value is 18 ± 2 mL/min/g, the HR was 270±16 beats/min and the LVDP is 141±4 mmHg. Besides, in test [1], the “effect on the pro-ischemic effect of 5HT (time to contracture)” value is listed as “abolished the pro-ischemic effect of serotonin”. The “effect on the pro-ischemic effect of 5HT (time to contracture)” value in test [1] (listed as ketanserin) was “completely abolished this pro-ischemic effect”. Further, the “concentration from which the shift of the methoxamine-tension curve was significant” value with alpha, Adrenoceptors stood at 0.3 µM.
